Experimental findings from PubChem BioAssay (NCI) are described below.

Some test systems named below: TK-10 renal; SNB-19 CNS; MDA-MB-435; OVCAR-5 ovarian; SK-MEL-5 melanoma; M14 melanoma; UACC-62 melanoma; SW-620 colon; HL-60(TB) leukemia; CCRF-CEM leukemia; SN12C renal; MDA-N; NCI-H522 lung; UO-31 renal; HS 578T breast; CAKI-1 renal; SF-539 CNS.
What all share (experiment): DTP human tumour cell line panel, 48 h

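In this assay, cells in 96-well plates receive the compound at five concentrations for 48 hours. Endpoints are linearly interpolated between the surrounding concentrations. TGI is the concentration that stops growth completely.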

On to `COc1cc2c(cc1OC)C1CN3CCCC3C(O)C1c1cc(OC)c(OC)cc1-2` (stereo unspecified), for which the TGI in the assay with TK-10 renal, in the assay with SNB-19 CNS, in the assay on MDA-MB-435, in the assay with OVCAR-5 ovarian, with SK-MEL-5 melanoma and in the assay with M14 melanoma was > 100 µM each time. The concentration for total growth inhibition (TGI) in the assay on UACC-62 melanoma, with SW-620 colon, in the assay on HL-60(TB) leukemia, in the assay with CCRF-CEM leukemia, in the assay on SN12C renal and in the assay on MDA-N was > 100 µM each time. For the same compound, the TGI in the assay on NCI-H522 lung, in the assay with UO-31 renal, with HS 578T breast and in the assay with CAKI-1 renal was > 100 µM in each case.

As to `O=C(Cn1c2ccc(Br)cc2c2nc3ccccc3nc21)NNC(=O)NC1CCCCC1`, the concentration for total growth inhibition (TGI) in the assay on TK-10 renal, with SNB-19 CNS, in the assay with MDA-MB-435, in the assay with OVCAR-5 ovarian, with SK-MEL-5 melanoma and in the assay on M14 melanoma was > 100 µM each time. Also, the TGI (in general, the concentration at which net growth stops) was > 100 µM in the assay on UACC-62 melanoma; > 100 µM in the assay on SW-620 colon; > 100 µM with SF-539 CNS; 76.1 µM with CCRF-CEM leukemia; > 100 µM in the assay on SN12C renal; > 100 µM in the assay with MDA-N. Further, the TGI in the assay with NCI-H522 lung is > 100 µM; in the assay on UO-31 renal, 8.09 µM; with HS 578T breast it was > 100 µM; in the assay with CAKI-1 renal, > 100 µM.

Take `CNc1ccc(C)cc1S(=O)(=O)c1ccccc1[N+](=O)[O-]`: the TGI in the assay with TK-10 renal is > 100 µM; in the assay on SNB-19 CNS it was > 100 µM; in the assay with MDA-MB-435 it was > 100 µM; in the assay with OVCAR-5 ovarian it was > 100 µM; with SK-MEL-5 melanoma, 46.1 µM; in the assay on M14 melanoma, > 100 µM. The concentration for total growth inhibition (TGI) with UACC-62 melanoma, in the assay on SW-620 colon, in the assay with SF-539 CNS, with CCRF-CEM leukemia, in the assay with SN12C renal and with MDA-N was > 100 µM each time. The concentration for total growth inhibition (TGI) with NCI-H522 lung, in the assay on UO-31 renal and in the assay on HS 578T breast was > 100 µM in each case.

Regarding `O=C(Oc1ccc(C(c2c(O)c3ccccc3oc2=O)c2c(O)c3ccccc3oc2=O)cc1)c1ccc(C(=O)c2ccccc2)cc1`, the concentration for total growth inhibition (TGI) with TK-10 renal is 37.8 µM; in the assay on SNB-19 CNS, 37.2 µM; with MDA-MB-435 it was 42.3 µM; in the assay on OVCAR-5 ovarian, 38.3 µM; with SK-MEL-5 melanoma, 75 µM; with UACC-62 melanoma it was 41 µM. Also, the TGI was > 100 µM in the assay with SW-620 colon; 36.5 µM in the assay with SF-539 CNS; 42.8 µM with CCRF-CEM leukemia; > 100 µM in the assay on SN12C renal; > 100 µM with MDA-N; 30.6 µM with NCI-H522 lung. The TGI was 31.6 µM with UO-31 renal, > 100 µM in the assay with HS 578T breast and 57.4 µM in the assay on CAKI-1 renal.

Take `O=C1CC(=O)NC(=NN2C(=O)CSC2c2ccc(Cl)cc2)N1` (stereo unspecified): the concentration for total growth inhibition (TGI) with TK-10 renal, in the assay with MDA-MB-435, with OVCAR-5 ovarian, with SK-MEL-5 melanoma, with M14 melanoma and with UACC-62 melanoma was > 100 µM each time. Further, the TGI in the assay with SW-620 colon is > 100 µM; in the assay with SF-539 CNS, > 100 µM; with CCRF-CEM leukemia it was 83.3 µM; with SN12C renal, 47.6 µM; in the assay with MDA-N it was > 100 µM; in the assay with NCI-H522 lung, > 100 µM. In addition, the TGI in the assay on UO-31 renal, with HS 578T breast and in the assay on CAKI-1 renal was > 100 µM each time.

In the case of `C[Si](C)(C)CCOCN(C(=O)C1=CCC2(CC1)OCCO2)c1ccccc1I`, the TGI with TK-10 renal was 63.5 µM; in the assay with SNB-19 CNS, 37.7 µM; with MDA-MB-435 it was 33.8 µM; with OVCAR-5 ovarian it was 41.9 µM; in the assay on SK-MEL-5 melanoma, > 100 µM; in the assay on M14 melanoma, 39.5 µM. Also, the TGI was determined as 41.3 µM in the assay on UACC-62 melanoma; 68 µM in the assay on SW-620 colon; 53.4 µM in the assay on SF-539 CNS; 79.5 µM in the assay on CCRF-CEM leukemia; 70.9 µM in the assay on SN12C renal; 59.1 µM with MDA-N. Further, the TGI with NCI-H522 lung was 38.7 µM; with UO-31 renal it was 38.9 µM; in the assay with HS 578T breast it was 44.6 µM; in the assay with CAKI-1 renal, 55.7 µM.

In the case of `COC1(OC)CCCCCCCCC(OC)(OC)CCCCCCCC1`, the TGI in the assay with TK-10 renal, in the assay on SNB-19 CNS, in the assay with MDA-MB-435, in the assay on OVCAR-5 ovarian, with SK-MEL-5 melanoma and with M14 melanoma was > 100 µM each time. Further, the TGI in the assay with UACC-62 melanoma, in the assay on SW-620 colon, in the assay on SF-539 CNS, in the assay with HL-60(TB) leukemia, in the assay with SN12C renal and with MDA-N was > 100 µM each time. Besides, the concentration for total growth inhibition (TGI) with NCI-H522 lung is > 100 µM; in the assay on UO-31 renal it was 10.9 µM; in the assay on HS 578T breast, > 100 µM; with CAKI-1 renal it was > 100 µM.

On to `CN1CC=C(C#CC(C)(C)O)CC1`, for which the TGI in the assay on TK-10 renal, in the assay with SNB-19 CNS, with MDA-MB-435, in the assay on OVCAR-5 ovarian, in the assay with SK-MEL-5 melanoma and in the assay with M14 melanoma was > 37.5 µM each time. For the same compound, the TGI in the assay with UACC-62 melanoma, with SW-620 colon, with HL-60(TB) leukemia, with CCRF-CEM leukemia, in the assay with SN12C renal and in the assay with MDA-N was > 37.5 µM in each case. Also, the TGI in the assay with UO-31 renal, with HS 578T breast and in the assay with CAKI-1 renal was > 37.5 µM throughout.

Regarding `CC1=C(C)C2(C#N)C(=O)N3C(=NC(c4ccco4)NC3c3ccco3)C2(C#N)C(c2ccco2)N1` (stereo unspecified), the TGI in the assay on TK-10 renal, in the assay with SNB-19 CNS, with MDA-MB-435, in the assay on OVCAR-5 ovarian, in the assay with SK-MEL-5 melanoma and with M14 melanoma was > 100 µM in each case. Moreover, the concentration for total growth inhibition (TGI) in the assay with UACC-62 melanoma, in the assay on SW-620 colon, in the assay on HL-60(TB) leukemia, with CCRF-CEM leukemia, with SN12C renal and in the assay with MDA-N was > 100 µM each time. Besides, the concentration for total growth inhibition (TGI) with NCI-H522 lung, with UO-31 renal, in the assay on HS 578T breast and in the assay on CAKI-1 renal was > 100 µM in each case.

Consider `CC(=O)O[C@H]1[C@@H](OC2CCCC2(c2ccccc2)c2ccccc2)O[N+]([O-])=C[C@@H]1c1ccccc1` (stereo partly specified), for which the TGI with TK-10 renal is 23.2 µM; in the assay with SNB-19 CNS, 29.7 µM; with MDA-MB-435, 11.3 µM; in the assay on OVCAR-5 ovarian, 35.6 µM; in the assay with SK-MEL-5 melanoma, 25.6 µM; in the assay with M14 melanoma, 18.5 µM. The TGI in the assay with UACC-62 melanoma is 15.7 µM; with SW-620 colon, 17.6 µM; in the assay on HL-60(TB) leukemia it was 5.71 µM; with CCRF-CEM leukemia, 14 µM; in the assay on SN12C renal, 16.9 µM; in the assay with MDA-N, 15.6 µM. For the same compound, the total growth inhibition concentration (TGI) turned out to be 2.62 µM with NCI-H522 lung, 23.6 µM with UO-31 renal, 20.5 µM in the assay on HS 578T breast and 11 µM in the assay on CAKI-1 renal.

For `CCc1cccc(C(C)C)c1NC(=O)C(=O)Nn1c(=S)[nH]c2ccccc2c1=O`, the TGI with TK-10 renal, in the assay on MDA-MB-435, in the assay with OVCAR-5 ovarian, with SK-MEL-5 melanoma, with M14 melanoma and in the assay on UACC-62 melanoma was > 100 µM in each case. Further, the total growth inhibition concentration (TGI) in the assay with SW-620 colon, with SF-539 CNS, in the assay with CCRF-CEM leukemia, in the assay with SN12C renal, in the assay on MDA-N and in the assay on NCI-H522 lung was > 100 µM in each case. Further, the TGI in the assay on UO-31 renal, with HS 578T breast and in the assay on CAKI-1 renal was > 100 µM in each case.

With `C#CC(O)/C=C/C(O)CCCC(O)CC#CC(O)C#CCCCCC(O)/C=C/CCCCCC(=O)CCCCCCCCCCCCCC(O)C(O)C#CC(=O)O` (stereo unspecified), the TGI with TK-10 renal, with SNB-19 CNS, with MDA-MB-435, in the assay with OVCAR-5 ovarian, in the assay on SK-MEL-5 melanoma and with M14 melanoma was > 25 µM throughout. Also, the total growth inhibition concentration (TGI) is > 25 µM in the assay on UACC-62 melanoma; > 25 µM in the assay on HL-60(TB) leukemia; > 25 µM in the assay on CCRF-CEM leukemia; > 25 µM in the assay on SN12C renal; > 25 µM with MDA-N; 9.83 µM in the assay with NCI-H522 lung. In addition, the TGI in the assay with UO-31 renal, with HS 578T breast and in the assay with CAKI-1 renal was > 25 µM in each case.

On to `COC(=O)c1ccccc1/C=C1\Cc2ccc3c(c2C1=O)CCC3`, for which the concentration for total growth inhibition (TGI) in the assay with TK-10 renal, in the assay on MDA-MB-435, in the assay on OVCAR-5 ovarian, in the assay on SK-MEL-5 melanoma, with UACC-62 melanoma and in the assay with SW-620 colon was > 100 µM throughout. Besides, the total growth inhibition concentration (TGI) with SF-539 CNS, in the assay with HL-60(TB) leukemia, in the assay on CCRF-CEM leukemia, in the assay on SN12C renal, in the assay with MDA-N and in the assay on NCI-H522 lung was > 100 µM throughout. The total growth inhibition concentration (TGI) in the assay on UO-31 renal, in the assay on HS 578T breast and in the assay with CAKI-1 renal was > 100 µM in each case.

Consider `C#CCNCC(=O)O`, for which the concentration for total growth inhibition (TGI) in the assay with TK-10 renal, in the assay with SNB-19 CNS, with MDA-MB-435, in the assay on OVCAR-5 ovarian, with SK-MEL-5 melanoma and in the assay on M14 melanoma was > 100 µM throughout. The total growth inhibition concentration (TGI) with UACC-62 melanoma, in the assay on SW-620 colon, with SF-539 CNS, with CCRF-CEM leukemia, in the assay on MDA-N and in the assay with NCI-H522 lung was > 100 µM each time. Moreover, the TGI in the assay with UO-31 renal, with HS 578T breast and in the assay with CAKI-1 renal was > 100 µM throughout.
